Experimental data published in patent US11179326B2, “Short duration depot formulations” (Durect Corporation, priority 2002, dated 2021).
Structures can show the parent of a compound that is named as a salt.

Tests used:
[1] = Saturation concentration in de-ionized water; format: physicochemical; conditions: DI water
Method: Bupivacaine hydrochloride (Sigma-Aldrich Corporation, St. Louis, MO) was dissolved in de-ionized (DI) water at a concentration of 40 mg/ml (saturation). A calculated amount of sodium hydroxide (1 N solution) was added to the solution and the pH of the final mixtures was adjusted to 10 to precipitate the BP base. The precipitated product was filtered, and further washed with DI water for at least three times. The precipitated product was dried at approximately 40° C. in vacuum for 24 h.

[2] = reported value; cited from earlier work

Row | concentration in de-ionized water (saturation) [1] [mg/mL] | SMILES | solubility in water [2]
1 | 40 | CCCCN1CCCCC1C(=O)Nc1c(C)cccc1C (centres unmarked) [Bupivacaine hydrochloride] | –
2 | – | CC(=O)OCC(COC(C)=O)OC(C)=O [triacetin] | 7.17 grams in 100 ml of water
